Assay results from publication PMC11439681, “The identification of potent dual-target monopolar spindle 1 (MPS1) and histone deacetylase 8 (HDAC8) inhibitors through pharmacophore modeling, molecular docking, molecular dynamics simulations, and biological evaluation” (Frontiers in Pharmacology, 2024).

Experiments:
MPS1 = biological target: T1, MPS1 (Homo sapiens, UniProt P33981); assay: In vitro MPS1 inhibitory assay; format: biochemical
T1 construct: purchased Abcam
T1 sequence (P33981 1-857): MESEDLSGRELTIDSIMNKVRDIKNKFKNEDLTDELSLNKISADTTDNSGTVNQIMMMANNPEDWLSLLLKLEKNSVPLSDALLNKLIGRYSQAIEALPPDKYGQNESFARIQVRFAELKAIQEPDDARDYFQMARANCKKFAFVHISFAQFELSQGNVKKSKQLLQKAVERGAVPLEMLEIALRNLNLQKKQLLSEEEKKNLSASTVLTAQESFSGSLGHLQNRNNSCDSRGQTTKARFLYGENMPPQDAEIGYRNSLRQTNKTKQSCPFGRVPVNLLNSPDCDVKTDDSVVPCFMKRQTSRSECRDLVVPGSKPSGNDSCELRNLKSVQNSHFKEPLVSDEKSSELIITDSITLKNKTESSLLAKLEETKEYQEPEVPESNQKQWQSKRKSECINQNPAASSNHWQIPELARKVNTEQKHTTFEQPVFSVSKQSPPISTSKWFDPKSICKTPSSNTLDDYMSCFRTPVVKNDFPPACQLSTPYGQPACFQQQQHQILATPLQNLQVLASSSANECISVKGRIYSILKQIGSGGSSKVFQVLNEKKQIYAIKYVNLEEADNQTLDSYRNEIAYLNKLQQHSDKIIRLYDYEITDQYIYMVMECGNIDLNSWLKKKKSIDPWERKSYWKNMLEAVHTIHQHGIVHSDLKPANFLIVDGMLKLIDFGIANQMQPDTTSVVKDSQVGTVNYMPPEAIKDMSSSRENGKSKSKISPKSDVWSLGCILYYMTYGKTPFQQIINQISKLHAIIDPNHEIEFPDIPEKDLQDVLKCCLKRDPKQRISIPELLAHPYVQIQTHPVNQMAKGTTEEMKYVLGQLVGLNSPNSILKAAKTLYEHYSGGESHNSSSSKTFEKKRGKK
Method: The methodology is as previously described ([Naud et al., 2013]). In brief, the experiment was conducted using 384-well black low-volume plates, which were loaded with MPS1 (concentration range of 3–12.5 nM), 5 μM fluorescence-labelled peptide (sequence: 5FAM-[…]-CONH2), 10 μM ATP, 1% (v/v) DMSO or the test compound (concentrations in 1% (v/v) DMSO ranged from 0.25 to 100 μM), and assay buffer. […]. The plate was read on a Caliper EZ reader II (PerkinElmer Life Sciences, Waltham, MA, United States). […]

HDAC8 = biological target: T2, HDAC8 (Homo sapiens, UniProt Q9BY41); assay: In vitro HDAC8 inhibitory assay; format: biochemical; details: 90 min at 37°C
T2 construct: purchased Abcam
T2 sequence (Q9BY41 1-377): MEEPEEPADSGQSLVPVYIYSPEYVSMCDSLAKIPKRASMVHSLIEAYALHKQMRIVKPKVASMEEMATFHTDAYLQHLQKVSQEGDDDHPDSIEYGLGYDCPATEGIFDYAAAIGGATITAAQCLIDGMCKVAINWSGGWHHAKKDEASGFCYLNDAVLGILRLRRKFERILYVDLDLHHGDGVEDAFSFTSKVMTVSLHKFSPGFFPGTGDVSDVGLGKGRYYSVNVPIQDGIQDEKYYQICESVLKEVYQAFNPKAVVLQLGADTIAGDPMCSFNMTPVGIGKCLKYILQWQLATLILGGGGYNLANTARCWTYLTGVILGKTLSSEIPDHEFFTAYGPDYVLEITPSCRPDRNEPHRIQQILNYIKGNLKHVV
Method: Inhibition of HDAC8 was determined in 96-well plates. […] The assessment of fluorescence intensity was executed at 390 nm and 460 nm via a microplate reader.

HepG2 liver cancer cells = assay: MTT cytotoxicity assay, HepG2; format: cell-based; details: Homo sapiens, 72 h cell treatment
Method: The cells (5 × 10^4 cells/well) were incubated overnight in 96-well plates. A series of solutions containing varying concentrations of inhibitors were added and incubated at 37°C for a period of 72 h. Subsequently, the culture medium was removed, followed by a subsequent incubation of the cells with a 5 mg/mL MTT stock solution for 4 h. After centrifugation, the precipitate was solubilized in DMSO and gently shaken for 15 min. Finally, the absorbance measurement at 570 nm was completed using a microplate reader. Data analysis was performed using GraphPad Prism 6.0 software.

| SMILES | MPS1 (IC50, nM) (MPS1; 10 μM ATP, 60 min, room temperature) | IC50 (MPS1) [nM] | IC50 (HDAC8) [nM] | IC50 (HepG2 liver cancer cells) [µM] |
| --- | --- | --- | --- | --- |
| O=C(/C=C/c1cccc(S(=O)(=O)Nc2ccccc2)c1)NO [Belinostat, reference compound] | No inhibition | – | – | – |
| COc1cc(-c2cncn2/C=C/C(=O)NO)ccc1Nc1cc2c(cn1)cc(C1C=CN=C1)n2C(=O)OC(C)(C)C (stereo not shown) [MPH-2] | – | 7.6 ± 0.35 | 8.15 ± 0.58 | 0.32 |
| COc1cc(-c2cnc(C)n2/C=C/C(=O)NO)ccc1Nc1cc2c(cn1)cc(C1C=CN=C1)n2C(=O)OC(F)(F)F (stereo not shown) [MPH-4] | – | 11.7 ± 0.95 | 13.5 ± 0.61 | 0.41 |
| Cc1ncc(-c2ccc(Nc3cc4c(cn3)cc(C3C=NC(C(F)(F)F)=C3)n4C(=O)OC(C)(C)C)cc2)n1/C=C/C(=O)NO (stereo not shown) [MPH-3] | – | 13.2 ± 0.82 | 15.2 ± 1.94 | 0.55 |
| CC(C)(C)OC(=O)n1c(-c2cn[nH]c2C(F)F)cc2cnc(Nc3ccc(-c4cnc(C(F)(F)F)n4/C=C/C(=O)NO)cc3Cl)cc21 [MPH-6] | – | 10.8 ± 0.69 | 16.6 ± 2.06 | 0.53 |
| CC1=CC(c2cc3cnc(Nc4ccc(-c5cccc[n+]5/C=C/C(=O)NO)cc4Cl)cc3n2C(=O)OC(F)(F)F)C=N1 (stereo not shown) [MPH-1] | – | 9.38 ± 0.41 | 17.5 ± 2.32 | 0.47 |
